From patent US9814758B2, “Inhibitors of apoptosis and uses thereof” (CENTRE NATIONAL DE LA RECHERCHE SCIENTIFIQUE-CNRS, priority 2010, dated 2017)
Non-standard residues stand in square brackets, D forms with d. Residues, ends and D or L forms follow the SMILES beside them. No end group written: not given here. Ahx = NCCCCCC(=O)O

Test system: primary cardiomyocytes
Assay: STS-induced DNA fragmentation (Cell Death detection ELISA PLUS) in primary cardiomyocytes
Format: cell-based, mouse
Details: for reduction of DNA fragmentation: peptide given together with staurosporine, 1 μM, related to STS-treated cells (=100%), FIG. 5B
Protocol: FIG. 5: In vitro evaluation of the anti-apoptotic activity of CPPs and CPP-conjugates. Workflow and quantitation of DNA fragmentation in (A) C2C12 cells, (B) primary cardiomyocytes, (C) H9c2 cells and (D) NG108-15 cells. Data were normalized to 100% STS. Data shown are the means±SEM, with n≧5. Cells were seeded in 24-well plates and grown overnight. The next day, the cells were incubated with STS alone or with STS+1 μM peptide (in OPTI-MEM) (OPTI-MEM® is a modification of Eagle's Minimum Essential Media, buffered with HEPES and sodium bicarbonate, and supplemented with hypoxanthine, thymidine, sodium pyruvate, L-glutamine, trace elements, and growth factors) (STS concentration and incubation time for each cells are given in the figure). Thereafter, solutions were removed, replaced by complete medium and further incubated for 40 h. Following the regeneration phase, the cells were lyzed and DNA fragmentation was detected according to manufacturer's instructions (Cell Death detection ELISA^PLUS kit—Roche Diagnostics).
FIG. 6: Anti-apoptotic activity of variants of the Tat-DAXXp sequence on primary cardiomyocytes. As described in the caption of FIG. 5, the different analogues of the DAXXp sequence (see Table 2) were assessed for anti-apoptotic properties against STS (Cell Death detection ELISA^PLUS kit—Roche Diagnostics) (A-B). None of the analogues were able to protect the primary cardiomyocytes—a fact which confirms that the 16mer DAXXp has the optimal length and sequence for highest cardioprotective effect.
FIG. 7: Comparison of the murine/rat DAXXp with the human DAXXp sequence in terms of anti-apoptotic activity on C2C12 cells, primary cardiomyocytes, and H9c2. The murine DAXXp sequence conjugated to Tat (Tat-mDAXXp—SEQ ID NO: 61) which is identical to the rat DAXXp sequence (see FIG. 1B), was compared to the human construct (Tat-DAXXp) in terms of anti-apoptotic properties against STS (Cell Death detection ELISA^PLUS kit—Roche Diagnostics). The C2C12 cells and the primary cardiomyocytes used were from mice and the H9c2 cells from rat.
FIG. 9: Comparison of FADDp constructs with Tat-DAXXp in terms of anti-apoptotic activity in primary cardiomyocytes and in H9c2 cells. Quantification of DNA normalized to 100% STS. Data shown are the means±SEM, with n≧5. Cells were seeded in 24-well plates and grown overnight. The next day, the cells were incubated with STS alone or with STS+1 μM peptide (in OPTI-MEM®) (OPTI-MEM® is a modification of Eagle's Minimum Essential Media, buffered with HEPES and sodium bicarbonate, and supplemented with hypoxanthine, thymidine, sodium pyruvate, L-glutamine, trace elements, and growth factors) (STS concentration is given in the figure and incubation time is given in FIG. 5). Thereafter, solutions were removed, replaced by complete medium and further incubated for 40 hours. Following the regeneration phase, the cells were lyzed and DNA fragmentation was detected according to manufacturer's instructions (Cell Death detection ELISA^PLUS kit—Roche Diagnostics).
FIG. 10: Comparison of Tat-DAXXp and Tat-FADDp15 alone and in combination in primary cardiomyocytes (A) and in H9c2 cells (B).
Thereafter, the capacity of these peptides to inhibit apoptosis induced by staurosporine was evaluated. Apoptosis was determined using the Cell Death detection ELISA^PLUS kit (Roche) measuring the DNA fragmentation.
In most publications, anti-apoptotic peptides currently available in the art are administrated 3-4 hours prior to apoptosis induction, which is poorly relevant to a clinical application. For that reason, the protocol used in the present study included administration of the peptides together with the staurosporine. […] This was not observed with CPP alone or with the Tat-scrDAXXp or Tat-ncDAXXp negative controls. […] To better compare the results, the DNA fragmentation (described by the enrichment factor) is related to the staurosporine-treated cells (=100%).

| Compound | reduction of DNA fragmentation [%] | ability to decrease cell apoptosis / protect the cells (against STS) |
| --- | --- | --- |
| CC[C@H](C)[C@H](NC(=O)[C@H](Cc1c[nH]cn1)NC(=O)[C@@H](NC(=O)[C@H](CCCNC(=N)N)NC(=O)CCCCCNC(=O)[C@H](CCCNC(=N)N)NC(=O)[C@H](CCCNC(=N)N)NC(=O)CCCCCNC(=O)[C@H](CCCNC(=N)N)NC(=O)[C@H](CCCNC(=N)N)NC(=O)CCCCCNC(=O)[C@@H](N)CCCNC(=N)N)[C@@H](C)CC)C(=O)N[C@@H](CC(C)C)C(=O)N[C@@H](Cc1ccccc1)C(=O)N[C@@H](CCC(N)=O)C(=O)N[C@@H](CC(N)=O)C(=O)N[C@H](CCCNC(=N)N)C(=O)N[C@@H](CCCNC(=N)N)C(=O)N[C@@H](CCSC)C(=O)N[C@@H](CCCCN)C(=O)N[C@@H](Cc1c[nH]c2ccccc12)C(=O)N[C@@H](Cc1c[nH]cn1)C(=O)N[C@@H](CCCCN)C(=O)N[C@@H](CCCCN)C(=O)N[C@@H](CCCCN)C(=O)N[C@@H](CO)C(=O)N[C@@H](CCCNC(=N)N)C(=O)N[C@@H](CCCCN)C(=O)N[C@@H](CCC(=O)O)C(=O)N[C@@H](CCCCN)C(=O)N[C@@H](CCCCN)C(=O)N[C@@H](CCC(N)=O)C(=O)N[C@H](C(=O)NCC(=O)N[C@@H](CO)C(=O)NCC(=O)N1CCC[C@H]1C(=O)N[C@@H](CC(C)C)C(=O)NCC(N)=O)[C@@H](C)O [Pip2b-DAXXp, (RXR)3-IHILFQNrRMKWHK-KKSRKEKKQTGSGPLG-NH2] (H-R[Ahx]RR[Ahx]RR[Ahx]RIHILFQN[dR]RMKWHKKKSRKEKKQTGSGPLG-NH2; N-terminus assumed) | 55 |  |
| KKSRKEKKQTGSGPLG-NH2 [DAXXp, KKSRKEKKQTGSGPLG-NH2] |  | capable of decreasing cell apoptosis |
| GRKKRRQRRRPPQKKSRKEKKQTGSGPLG-NH2 [Tat-DAXXp, GRKKRRQRRRPPQ-KKSRKEKKQTGSGPLG-NH2] | 44 |  |
